{"source": "paper PMC12270203", "about": "“The ExoGAN generative AI framework enables extracellular vesicle-based immunotherapy” (Research Square, 2025)", "key": {"[1]": {"test_system": "DMF5 TCR on J+ cells", "test": "J+ cell immunostimulation by peptide-engineered APC-EVs", "type": "cell-based, human", "settings": "2x10^9 particles, 24 hours", "method": "We designed EVs derived from K+ cells with ExoGAN-designed peptides to precisely activate J+ cells expressing the melanoma TCR, DMF5.\n100 uL of the isolate solution was combined with a 100 uL mastermix solution containing 5 uM GL dipeptide and 1 uM peptide. The 200 uL solution was incubated on a revolver at 4°c for 1.5 hours, following purification by ultrafiltration using a 10k MWCO column into a 30 uL solution. 10 uL was used for zeta potential, nano flow cytometry to assess peptides binding onto HLA-A*02:01 and 10 uL was used to assess CD69 expression and IL-2 secretion from J+ cells. To measure J+ functionality, 2x10^5 J+ cells in 190 uL were added to a 96 round bottom well plate, followed by adding the 10 uL isolate solution. 24 hours later, CD69 was evaluated with flow cytometry"}, "[2]": {"test_system": "surface HLA*A02:01 on engineered K562 cells (K+)", "test": "Flow cytometry peptide exchange / antigen presentation assay on K562 cells", "type": "cell-based, human", "settings": "1 uM AF555 N-terminal tagged peptide, 5 uM GL dipeptide, 1 uM brefeldin A, 3 hours, N=4", "method": "(K+) that only expresses the HLA*A02:01 allele (see Methods).\nTo validate ExoGAN at the cellular level, we used engineered K562[53] cells (K+) that only express surface HLA*A02:01. Native K562 cells (K−) and K+ cells were grown in complete 1640-RPMI (Gibco) media and harvested at 1 x 10^6 cells. Based on the method reported by Saini et al.[70], cells were incubated with 1 uM AF555 N-terminal tagged peptides with or without the 5 uM GL dipeptide in 1 uM brefeldin A for 3 hours in a 96 well plate. Total volume was 200 uL per well. Cells were washed 3x and subjected to flow cytometry for HLA*A02:01 affinity."}, "[3]": {"target": "HLA-A*02:01 on engineered K562 cells (K+) and on extracellular vesicles isolated from them (human)", "test": "nano flow cytometry on extracellular vesicles; EVs isolated from K+ cells incubated with 1 uM AF647-tagged peptide and 5 uM GL dipeptide, ultrafiltered (10k MWCO), stained with an AF488 HLA-A*02:01 antibody; NanoFCM"}}, "note": "Where no end group is shown, it is not given here.", "data": [{"molecule": "FLIHSRNHD [Exo_1]", "values": [{"measurement": "CD69 median fluorescent intensity of J+ cells", "setting": "[1]; 2x10^5 J+ cells, flow cytometry, N=4", "result": "outperformed MART-1"}, {"measurement": "IL-2 secretion of J+ cells", "setting": "[1]; J+ cells, ELISA, Dunnett's test corrected one-way ANOVA, p <0.05", "result": "significantly more"}]}, {"molecule": "FLIDLAFLI [IEDB, reference compound]", "values": [{"measurement": "peptide presentation on K+ cells (AF555 median fluorescent intensity)", "setting": "[2]", "result": "most potent peptide binders"}]}, {"molecule": "CLICMDMVV [Exo_4]", "values": [{"measurement": "peptide presentation on K+ cells (AF555 median fluorescent intensity)", "setting": "[2]", "result": "most potent peptide binders"}]}, {"molecule": "AAICTLLYD (also: AF647-tagged, position not given here)", "note": "[Exo_3, AF647-tagged]", "values": [{"measurement": "percent peptide binding", "setting": "[3]", "result": 100, "unit": "%"}]}, {"molecule": "CLICMDMVV (cysteine pairing not given here; also: AF647-tagged, position not given here)", "note": "[Exo_4, AF647-tagged]", "values": [{"measurement": "percent peptide binding", "setting": "[3]", "result": 100, "unit": "%"}]}, {"molecule": "FLIHSRNHD (also: AF647-tagged, position not given here)", "note": "[Exo_1, AF647-tagged]", "values": [{"measurement": "percent peptide binding", "setting": "[3]", "result": 100, "unit": "%"}]}, {"molecule": "HHMNMSMSK (also: AF647-tagged, position not given here)", "note": "[Exo_2, AF647-tagged]", "values": [{"measurement": "percent peptide binding", "setting": "[3]", "result": 100, "unit": "%"}]}]}
